Results taken from patent publication US20070299062A1 (The Procter & Gamble Company, priority 2006, published 2007).

Legend:
5-HT2c receptor = biological target: T1, 5-HT2c receptor (Homo sapiens, UniProt P28335); assay: 5-HT2c receptor binding assay (3H-mesulergine competition); conditions: 1 nM 3H-mesulergine; read-out: Ki (nM) binding data 5-HT2C
T1 construct: purchased Perkin-Elmer or Euroscreen (named only as possible suppliers)
T1 sequence (P28335 33-458): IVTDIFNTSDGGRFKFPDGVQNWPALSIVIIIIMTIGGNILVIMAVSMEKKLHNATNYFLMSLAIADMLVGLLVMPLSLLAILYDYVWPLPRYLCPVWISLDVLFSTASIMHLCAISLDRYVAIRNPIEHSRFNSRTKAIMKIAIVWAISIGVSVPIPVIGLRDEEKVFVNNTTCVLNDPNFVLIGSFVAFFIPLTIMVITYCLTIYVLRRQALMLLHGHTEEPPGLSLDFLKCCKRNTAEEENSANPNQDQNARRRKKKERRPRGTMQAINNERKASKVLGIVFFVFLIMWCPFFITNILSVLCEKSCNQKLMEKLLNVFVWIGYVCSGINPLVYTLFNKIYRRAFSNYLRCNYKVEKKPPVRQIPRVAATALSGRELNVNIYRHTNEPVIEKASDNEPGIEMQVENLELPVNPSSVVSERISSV
Procedure: MCH antagonist compounds are evaluated for binding to the serotonin 5-HT2c receptor to determine receptor selectivity. Binding activity is assessed using a competitive assay with ^3H-mesulergine (Perkin Elmer), a 5-HT2c selective ligand, on membrane containing the 5-HT2c receptor. Briefly, 1 nM ^3H-mesulergine and varying concentrations of the compound are incubated with 5-HT2c receptor membranes, following an incubation period, the membranes are washed and ^3H-mesulergine bound to membranes is measured in a liquid scintillation counter. The amount of bound ^3H-mesulergine at the varying concentration of competitor compound is used to derive the affinity (Ki) of the compound for the 5-HT2c receptor. 5-HT2c receptor containing membranes are readily available from several companies including Perkin-Elmer and Euroscreen.

MCH-1R = MCH-1R (UniProt Q99705); assay: MCH-1R competition binding assay
Procedure: In vitro binding and function assays are performed on membranes derived from cells or tissues expressing endogenous MCH1R. Competition binding assays are performed to identify high affinity compounds. Briefly, either radiolabeled or europium labeled MCH with varying concentrations of competitor compound which are incubated with membranes expressing the receptor. Rat brain membrane or cell lines, including but not limited to human Kelly neuroblastoma cells, A-431 epidermoid cells, and rat PC-12 cells are known to express endogenous MCH1R and are used in the assay. Binding is allowed to proceed until equilibrium is reached then bound labeled MCH is separated from free MCH by capturing membranes onto a filter. The filters are washed to remove loosely associated MCH and labeled MCH is quantified. Data is analyzed and IC50 and Ki are calculated to determine compound affinity.

Compound	Ki (5-HT2c receptor) [nM]	Ki (MCH-1R) [nM]
CS(=O)(=O)C1CCN(Cc2ccc3c(c2)CC[C@H](n2cnc4cc(-c5ccc(Cl)cc5)sc4c2=O)C3)CC1 [6-(4-Chlorophenyl)-3-[(S)-6-(4-methanesulfonylpiperidin-1-ylmethyl)-1,2,3,4-tetrahydronapthealen-2-yl}thieno[3,2-d]pyrimidin-4(3H)-one]	> 100000	8.2
O=c1c2sc(-c3ccc(Cl)cc3)cc2ncn1[C@H]1CCc2cc(CNC(CO)CO)ccc2C1 [6-(4-Chlorophenyl)-3-{(S)-6-[(2-hydroxy-1-hydroxymethylethylamino)methyl]-1,2,3,4-tetrahydronapthealen-2-yl}thieno[3,2-d]pyrimidin-4(3H)-one]	> 100000	10.7
CS(=O)(=O)CCNCc1ccc2c(c1)CC[C@H](n1cnc3cc(-c4ccc(Cl)cc4)sc3c1=O)C2 [6-(4-Chlorophenyl)-3-{(S)-6-[(2-methanesulfonyl-ethylamino)methyl]-1,2,3,4-tetrahydronapthealen-2-yl}thieno[3,2-d]pyrimidin-4(3H)-one]	> 100000	22.6
O=c1c2sc(-c3ccc(Cl)cc3)cc2ncn1[C@H]1CCc2cc(CN3CC[C@H](O)C3)ccc2C1 [6-(4-Chlorophenyl)-3-{(S)-6-[((S)-3-hydroxypyrrolidin-1-yl)methyl]-1,2,3,4-tetrahydronaphthalen-2-yl}thieno[3,2-d]pyrimidin-4(3H)-one]	9550	24
C[C@H](O)CNCc1ccc2c(c1)CC[C@H](n1cnc3cc(-c4ccc(Cl)cc4)sc3c1=O)C2 [6-(4-Chlorophenyl)-3-{(S)-6-[(S)-2-hydroxypropylaminomethyl]-1,2,3,4-tetrahydronapthealen-2-yl}thieno[3,2-d]pyrimidin-4(3H)-one]	3080	25
CC(=O)N1CCN(Cc2ccc3c(c2)CC[C@H](n2cnc4cc(-c5ccc(Cl)cc5)sc4c2=O)C3)CC1 [(S)-3-(6-((4-Acetylpiperazin-1-yl)methyl)-1,2,3,4-tetrahydronapthalen-2-yl)-6-(4-chlorophenyl)thieno[3,2-d]pyrimidine-4(3H)-one]	14600	35
CC(=O)N1CCN(Cc2ccc3c(c2)CC[C@H](n2cnc4cc(-c5ccc(F)cc5F)sc4c2=O)C3)CC1 [(S)-3-[6-(4-Acetylpiperazin-1-ymethyl)-1,2,3,4-tetrahydronapthalen-2-yl]-6-(2,4-difluorophenyl)thieno[3,2-d]pyrimidin-4(3H)-one]	> 100000	8.4
CC(=O)N1CCN(Cc2ccc3c(c2)CC[C@H](n2cnc4cc(-c5ccc(Cl)cc5Cl)sc4c2=O)C3)CC1 [(S)-3-[6-(4-Acetylpiperazin-1-ymethyl)-1,2,3,4-tetrahydronapthalen-2-yl]-6-(2,4dichlorophenyl)thieno[3,2-d]pyrimidin-4(3H)-one]	2370	24.7
CC(=O)N1CCN(Cc2ccc3c(c2)CC[C@H](n2cnc4cc(-c5ccnc(Cl)c5)sc4c2=O)C3)CC1 [(S)-3-[6-(4-Acetylpiperazin-1-ymethyl)-1,2,3,4-tetrahydronapthalen-2-yl]-6-(2-chloropyridin-4-yl)thieno[3,2-d]pyrimidin-4(3H)-one]	> 100000	496
CC(=O)N1CCN(Cc2ccc3c(c2)CC[C@H](n2cnc4cc(-c5cccnc5F)sc4c2=O)C3)CC1 [(S)-3-[6-(4-Acetylpiperazin-1-ymethyl)-1,2,3,4-tetrahydronapthalen-2-yl]-6-(2-fluoropyridin-3-yl)thieno[3,2-d]pyrimidin-4(3H)-one]	> 100000	813
CC(=O)N1CCN(Cc2ccc3c(c2)CC[C@H](n2cnc4cc(-c5ccc(Cl)c(Cl)c5)sc4c2=O)C3)CC1 [(S)-3-[6-(4-Acetylpiperazin-1-ymethyl)-1,2,3,4-tetrahydronapthalen-2-yl]-6-(3,4-dichlorophenyl)thieno[3,2-d]pyrimidin-4(3H)-one]	> 100000	54.5
CC(=O)N1CCN(Cc2ccc3c(c2)CC[C@H](n2cnc4cc(-c5ccc(F)c(F)c5)sc4c2=O)C3)CC1 [(S)-3-[6-(4-Acetylpiperazin-1-ymethyl)-1,2,3,4-tetrahydronapthalen-2-yl]-6-(3,4-difluorophenyl)thieno[3,2-d]pyrimidin-4(3H)-one]	> 100000	36.6
CC(=O)N1CCN(Cc2ccc3c(c2)CC[C@H](n2cnc4cc(-c5cc(F)cc(F)c5)sc4c2=O)C3)CC1 [(S)-3-[6-(4-Acetylpiperazin-1-ymethyl)-1,2,3,4-tetrahydronapthalen-2-yl]-6-(3,5-difluorophenyl)thieno[3,2-d]pyrimidin-4(3H)-one]	> 100000	369
CC(=O)N1CCN(Cc2ccc3c(c2)CC[C@H](n2cnc4cc(-c5cccc(F)c5)sc4c2=O)C3)CC1 [(S)-3-[6-(4-Acetylpiperazin-1-ymethyl)-1,2,3,4-tetrahydronapthalen-2-yl]-6-(3-fluorophenyl)thieno[3,2-d]pyrimidin-4-(3H)one]	> 100000	17.9
CC(=O)N1CCN(Cc2ccc3c(c2)CC[C@H](n2cnc4cc(-c5ccc(F)cc5)sc4c2=O)C3)CC1 [(S)-3-[6-(4-Acetylpiperazin-1-ymethyl)-1,2,3,4-tetrahydronapthalen-2-yl]-6-(4-fluorophenyl)thieno[3,2-d]pyrimidin-4(3H)-one]	6360	9.4
COc1ccc(-c2cc3ncn([C@H]4CCc5cc(CN6CCN(C(C)=O)CC6)ccc5C4)c(=O)c3s2)cc1 [(S)-3-[6-(4-Acetylpiperazin-1-ymethyl)-1,2,3,4-tetrahydronapthalen-2-yl]-6-(4-methoxyphenyl)thieno[3,2-d]pyrimidin-4(3H)-one]	> 100000	65.2
CC(=O)N1CCN(Cc2ccc3c(c2)CC[C@H](n2cnc4cc(-c5ccc(C)cc5)sc4c2=O)C3)CC1 [(S)-3-[6-(4-Acetylpiperazin-1-ymethyl)-1,2,3,4-tetrahydronapthalen-2-yl]-6-(4-methylphenyl)thieno[3,2-d]pyrimidin-4(3H)-one]	5460	16.1
CC(=O)N1CCN(Cc2ccc3c(c2)CC[C@H](n2cnc4cc(-c5cncc(Cl)c5)sc4c2=O)C3)CC1 [(S)-3-[6-(4-Acetylpiperazin-1-ymethyl)-1,2,3,4-tetrahydronapthalen-2-yl]-6-(5-chloropyridin-3-yl)thieno[3,2-d]pyrimidin-4(3H)-one]	> 100000	38
CC(=O)N1CCN(Cc2ccc3c(c2)CC[C@H](n2cnc4cc(-c5cncc(F)c5)sc4c2=O)C3)CC1 [(S)-3-[6-(4-Acetylpiperazin-1-ymethyl)-1,2,3,4-tetrahydronapthalen-2-yl]-6-(5-fluoropyridin-3-yl)thieno[3,2-d]pyrimidin-4(3H)-one]	> 100000	97
CC(=O)N1CCN(Cc2ccc3c(c2)CC[C@H](n2cnc4cc(-c5cccnc5)sc4c2=O)C3)CC1 [(S)-3-[6-(4-Acetylpiperazin-1-ymethyl)-1,2,3,4-tetrahydronapthalen-2-yl]-6-(pyridin-3-yl)thieno[3,2-d]pyrimidin-4(3H)-one]	> 100000	1930
CC(=O)N1CCN(Cc2ccc3c(c2)CC[C@H](n2cnc4cc(-c5ccncc5)sc4c2=O)C3)CC1 [(S)-3-[6-(4-Acetylpiperazin-1-ymethyl)-1,2,3,4-tetrahydronapthalen-2-yl]-6-(pyridin-4-yl)thieno[3,2-d]pyrimidin-4(3H)-one]	8090	988
CC(=O)N1CCN(Cc2ccc3c(c2)CC[C@H](n2cnc4cc(-c5cccs5)sc4c2=O)C3)CC1 [(S)-3-[6-(4-Acetylpiperazin-1-ymethyl)-1,2,3,4-tetrahydronapthalen-2-yl]-6-(thien-2-yl)thieno[3,2-d]pyrimidin-4(3H)-one]	1760	270
CC(=O)N1CCN(Cc2ccc3c(c2)CC[C@H](n2cnc4cc(-c5ccsc5)sc4c2=O)C3)CC1 [(S)-3-[6-(4-Acetylpiperazin-1-ymethyl)-1,2,3,4-tetrahydronapthalen-2-yl]-6-(thien-3-yl)thieno[3,2-d]pyrimidin-4(3H)-one]	2010	137
CC(=O)N1CCN(Cc2ccc3c(c2)CC[C@H](n2cnc4cc(-c5cccc(Cl)c5)sc4c2=O)C3)CC1 [(S)-3-[6-(4-Acetylpiperazin-l-ymethyl)-1,2,3,4-tetrahydronapthalen-2-yl]-6-(3-chlorophenyl)thieno[3,2-d]pyrimidin-4(3H)-one]	> 100000	70.5
